Patent US10710987B2, “Hydrochloride salt form for EZH2 inhibition” (Epizyme, Inc., priority 2013, dated 2020)

Assay: Dynamic vapor sorption (DVS), hygroscopicity
Assay type: physicochemical
Conditions: for hygroscopicity (DVS, in words): FIGS. 5 and 6
Method: Dynamic Vapor Sorption DVS was measured on a VTI Model SGA-100 system. Measurement method: The relative humidity (RH) was changed in a controlled fashion, in 5% steps from 5.0% to 95.0% then back to 5.0% using the gravimetric vapor sorption system, and the weight percentage change (wt %) of the sample at each stage was measured.

## CCN(c1cc(-c2ccc(CN3CCOCC3)cc2)cc(C(=O)NCc2c(C)cc(C)[nH]c2=O)c1C)C1CCOCC1 [Polymorph A, 4-((3′-(((4,6-Dimethyl-2-oxo-1,2-dihydropyridin-3-yl)methyl)carbamoyl)-5′-(ethyl(tetrahydro-2H-pyran-4-yl)amino)-4′-methyl-[1,1′-biphenyl]-4-yl)methyl)morpholin-4-ium chloride]
  hygroscopicity (DVS, in words): some hygroscopicity
At 75% relative humidity (RH) at 25° C., FIG. 6
  weight gain (DVS): 4-6%

## CCN(c1cc(-c2ccc(CN3CCOCC3)cc2)cc(C(=O)NCc2c(C)cc(C)[nH]c2=O)c1C)C1CCOCC1.Cl [Polymorph C, 4-((3′-(((4,6-Dimethyl-2-oxo-1,2-dihydropyridin-3-yl)methyl)carbamoyl)-5′-(ethyl(tetrahydro-2H-pyran-4-yl)amino)-4′-methyl-[1,1-biphenyl]-4-yl)methyl)morpholin-4-ium chloride]
  hygroscopicity (DVS, in words): non-hygroscopic
Upon increasing relative humidity from 5.0% to 95.0%, FIG. 5
  weight increase (DVS): less than 1.5%
